* marks the point of attachment. Acm = CC(=O)NC*
Columns and labels:
[1] = test system: KLN-205 squamous epithelial syngenic tumour cells; assay: In vivo transfection of KLN-205 tumours in DBA2 mice by local injection of peptide/plasmid complexes (nitroreductase immunostaining); set-up: species or system mouse; conditions: for ranking by numbers of transfected tumor cells (most to least efficient): 0.5 μg peptide/μg DNA, intratumoural injection
Protocol: A representative in via cell transfection system is transfection of tumor cells using a murine carcinoma model.
The murine carcinoma model DBA2 containing the squamous epithelial syngenic tumour cell line KLN-205 was prepared as described in the Examples. A transfecting complex was prepared using a solution of plasmid DNA encoding a reporter gene or, for example, nitroreductase and a selected NBC peptide 0.5 μg peptide/μg DNA, as described herein. Where desired, a conjugate peptide was added to the transfecting complex, at a concentration of 0.1-0.3 μg […] peptide/μg DNA.
Transfection efficiency may be determined in a number of ways, including assessing the effect of the reporter gene on the target tissue, or by quantitating the gene product. Below, tissues samples were obtained and nitroreductase gene expression was ascertained via staining of tissue sections.
The ability to transfect tumor cells in vivo in mice was tested using plasmid nucleic acid carrying the nitroreductase reporter gene condensed on each of the following peptides: NBC15, NBC8, NBC9, NBC11, NBC7.
DBA2--male mice, aged 5-10 weeks were injected subcutaneously in each flank with a squamous epithelial syngenic tumour cell line KLN-205. The cell line was grown up in 175 ml T-flasks in standard EMEM medium containing 10% foetal calf serum. When the cells reached a density of 4×10^6 they were suspended by a standard trypsinization technique, washed in PBS and diluted to a final concentration of […].
The anaesthetic was Enflurane (Alynane; Anaquest, Ltd., Windlesham, Surrey UK): Ketamine (10% Ketaset, Willows Francis Veterinary, Cramley, West Sussex, UK); Rompun (2%, Bayer UK, Ltd., Suffolk, UK). For 10 ml anaesthetic mixture: 8.5 ml PBS; 1 ml Ketamine; 0.5 ml Rompun. Each animal was injected intra-peritoneally with 200 μl/animal using 1 ml syringe with 25 gauge needle. Once anaesthetized, the tumour is manipulated between the fingers lifting it slightly away from the animal's body and at the same time apply minimum pressure to the tumour. Using a 0.5 ml insulin needle the formulated delivery vehicle (a plasmid containing the E. coli nitroreductase gene condensed on a peptide at a ratio of 0.5 μg peptide/μg DNA) to be injected is taken up and the tumour is injected horizontally trying to avoid any visible blood vessels and necrotic or abnormal tissue. Daily monitoring is continued until the experiment is terminated.
7μ sections of frozen tumour tissue are prepared using standard methods and a Cryostat and air dried. Sections are fixed with freshly prepared 4% PFA/PBS for 30 mins at room temperature and then washed twice with 0.01% Tween-20/PBS 5 mins each wash. Sections are then immersed in 0.25% hydrogen peroxide/PBS, at room temperature (20C.) for 30 mins, and then washed three times in 0.01% Tween 20/PBS for 5 mins each wash. Sections are then permeabilised by treatment with ice cold 0.1 % TRITON X-100 for 5 mins, followed by a further two washes in 0.01% Tween-20/PBS 5mins each wash. The sections are then blocked with 5% NGS/PBS 60mins at room temperature in a wetbox. After decanting the blocking solution, 0.5 ml diluted antiserum/slide (1:400 in 2.5% NGS) is added and the sections incubated for 60 mins at room temperature. Slides are then washed three times in 0.01% Tween-20/PBS 5 mins each wash. Secondary antibody (0.5 ml) from ABC Elite Vector stain kit is added as follows and incubated 30 mins at room temperature in a wetbox.
The tumour is a murine syngenic squamous carcinoma produced by subcutaneous injection of KLN205 cells. When the tumours were approximately 4 mm in diameter they were injected with 20 μl of plasmid DNA formulated with the NBC15 peptide. After 48 h the tumours were excised and sectioned by standard histological techniques and immunostained for expression of the transgene (E. coli nitroreductase). […] In this case the tumours were injected with the same plasmid formulated in 0.5 μg NBC9 peptide/μg DNA.

cells = assay: Transfection efficiency / activity of complexes (general statement); assay type: cell-based; conditions: related to affinity for nucleic acid

| Substance | ranking by numbers of transfected tumor cells (most to least efficient) [1] | transfection efficiency on direct injection within a localized area ([1]; in vivo, direct injection, e.g. a tumour) | transfection efficiency (cells) |
| --- | --- | --- | --- |
| NH2-KKSPKKAKKPAAKKSPKKAKKPAYC(Acm)-COOH (H-KKSPKKAKKPAAKKSPKKAKKPAYC(Acm)-OH; SMILES CC(=O)NCSC[C@H](NC(=O)[C@H](Cc1ccc(O)cc1)NC(=O)[C@H](C)NC(=O)[C@@H]1CCCN1C(=O)[C@H](CCCCN)NC(=O)[C@H](CCCCN)NC(=O)[C@H](C)NC(=O)[C@H](CCCCN)NC(=O)[C@H](CCCCN)NC(=O)[C@@H]1CCCN1C(=O)[C@H](CO)NC(=O)[C@H](CCCCN)NC(=O)[C@H](CCCCN)NC(=O)[C@H](C)NC(=O)[C@H](C)NC(=O)[C@@H]1CCCN1C(=O)[C@H](CCCCN)NC(=O)[C@H](CCCCN)NC(=O)[C@H](C)NC(=O)[C@H](CCCCN)NC(=O)[C@H](CCCCN)NC(=O)[C@@H]1CCCN1C(=O)[C@H](CO)NC(=O)[C@H](CCCCN)NC(=O)[C@@H](N)CCCCN)C(=O)O) [NBC8] | NBC15>NBC8, NBC9, NBC11>NBC7>>>poly-lysine | optimal transfection efficiency | – |
| NH2-TKKAWKKAEKKAAKKCGVSAKKAAKKAWKKA-CONH2 (H-TKKAWKKAEKKAAKKCGVSAKKAAKKAWKKA-NH2) [NBC11] | NBC15>NBC8, NBC9, NBC11>NBC7>>>poly-lysine | – | not completely deleterious to transfection |

Source: US6218112A, “Optimization of gene delivery and gene delivery system” (Cobra Therapeutics Limited, priority 1997, dated 2001)
